Assay results published in patent publication US20260070945A1, “MACROCYCLIC IMMUNOMODULATORS” (Bristol-Myers Squibb Company, priority 2022, published 2026).
*1 amine or outer side, *2 acyl side, *3 side chain or, on linkers, in order; H or OH if unused. Where a SMILES comes first, the peptide text is derived from it. Bridges are numbered along the chain shown (N, C = ends). [ ]: non-standard residue; d: D form. The star is where a group is joined. Phe(3-CF3) = N[C@@H](Cc1cccc(C(F)(F)F)c1)C(=O)O; Ala(morpholin-4-yl) = N[C@@H](CN1CCOCC1)C(=O)O; Phe(4-COOH) = N[C@@H](Cc1ccc(C(=O)O)cc1)C(=O)O; Bip = N[C@@H](Cc1ccc(-c2ccccc2)cc1)C(=O)O; γGlu = O=C(O)[C@H](CCC(=O)[*:2])N[*:1]; Abu(3S-NH2) = C[C@H](N)[C@H](N)C(=O)O; NH(CH2)12COOH = O=C(O)CCCCCCCCCCCCN*; Val(3-OH) = CC(C)(O)[C@H](N)C(=O)O; 4Pal = N[C@@H](Cc1ccncc1)C(=O)O; Cha = N[C@@H](CC1CCCCC1)C(=O)O; Cit = NC(=O)NCCC[C@H](N)C(=O)O; 4Abz = Nc1ccc(C(=O)O)cc1; Carboxymethyl = O=C(O)C*; NMeA = CN[C@@H](C)C(=O)O; Orn = NCCC[C@H](N)C(=O)O; Aun = NCCCCCCCCCCC(=O)O; Dab = NCC[C@H](N)C(=O)O; Dap = NC[C@H](N)C(=O)O; AEEA = NCCOCCOCC(=O)O

The compounds below were run against T1, PD-1/PD-L1 interaction (PE-labeled human PD-L1-Ig binding to Jurkat cell line over-expressing human PD-1) (Homo sapiens, UniProt Q15116) (assay: Jurkat-PD-1 Cell Binding High-Content Screening Assay (CBA)). Details: Jurkat-hPD-1 cells, PE-labeled PD-L1-Ig 20 nM final; read-out: Jurkat HPD1 PDL1 IC50.
T1 construct: expressed in transfected cells; host or cells: Jurkat
Summary of the method: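 Binding of 20 nM (final) PE-tagged PD-L1-Ig to compound-pretreated Jurkat-hPD-1 cells was measured by high-content imaging after 1 h. Pretreatment ran 2 h at 37 °C in DMEM with 10% fetal calf serum.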

T1 sequence (Q15116 25-288): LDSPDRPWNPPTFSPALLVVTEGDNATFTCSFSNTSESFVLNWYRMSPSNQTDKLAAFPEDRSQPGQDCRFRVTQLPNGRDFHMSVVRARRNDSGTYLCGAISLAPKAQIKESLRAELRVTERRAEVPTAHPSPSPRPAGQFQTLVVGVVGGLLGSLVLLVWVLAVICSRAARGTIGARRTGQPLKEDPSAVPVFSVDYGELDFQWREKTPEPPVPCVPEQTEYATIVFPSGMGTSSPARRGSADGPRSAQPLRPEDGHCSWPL

First: CC(C)C[C@H]1NC(=O)[C@H](C)N(C)C(=O)[C@H](CCCNC(N)=O)NC(=O)[C@H](Cc2ccc(-c3ccccc3)cc2)NC(=O)[C@H](Cc2ccc(C(=O)O)cc2)NC(=O)[C@H](Cc2cccc(C(F)(F)F)c2)NC(=O)[C@H](CC(=O)O)NC(=O)[C@H](Cc2ccc(OCC(=O)O)cc2)NC(=O)[C@H]([C@H](C)N)NC(=O)CSC[C@@H](C(=O)N[C@@H](CCN)C(=O)NCCCCCCCCCCCCC(=O)O)NC(=O)[C@H](CCC(=O)O)NC(=O)[C@H](C(C)C)NC(=O)[C@H](CC2CCCCC2)NC(=O)[C@H](CCN)NC1=O [Example 1194] ({CH2CO}-[Abu(3S-NH2)]Y(Carboxymethyl)D[Phe(3-CF3)][Phe(4-COOH)][Bip][Cit][NMeA][dL][Dab][Cha]VEC[Dab]-{NH(CH2)12COOH}; thioether N-14)
Second: CC(C)C[C@H]1NC(=O)[C@H](C)N(C)C(=O)[C@H](Cc2ccc(C(=O)O)cc2)NC(=O)[C@H](Cc2ccc(-c3ccccc3)cc2)NC(=O)[C@H](Cc2ccc(C(=O)O)cc2)NC(=O)[C@H](Cc2cccc(C(F)(F)F)c2)NC(=O)[C@H](CC(=O)O)NC(=O)[C@H](Cc2ccc(OCC(=O)O)cc2)NC(=O)[C@H]([C@H](C)N)NC(=O)CSC[C@@H](C(=O)N[C@@H](CCN)C(=O)NCCCCCCCCCCCCC(=O)O)NC(=O)[C@H](CCC(=O)O)NC(=O)[C@H](C(C)C)NC(=O)[C@H](CC2CCCCC2)NC(=O)[C@H](CCN)NC1=O [Example 1199] ({CH2CO}-[Abu(3S-NH2)]Y(Carboxymethyl)D[Phe(3-CF3)][Phe(4-COOH)][Bip][Phe(4-COOH)][NMeA][dL][Dab][Cha]VEC[Dab]-{NH(CH2)12COOH}; thioether N-14)
The IC50 of the first is 2.3-fold lower: 7.9 nM for the first, 18 nM for the second. The first is the more potent here.

`CC(C)C[C@H]1NC(=O)[C@H](C)N(C)C(=O)[C@H](CCCNC(N)=O)NC(=O)[C@H](Cc2ccc(-c3ccccc3)cc2)NC(=O)[C@H](Cc2ccc(C(=O)O)cc2)NC(=O)[C@H](Cc2cccc(C(F)(F)F)c2)NC(=O)[C@H](CC(=O)O)NC(=O)[C@H](Cc2ccc(OCC(=O)O)cc2)NC(=O)[C@H]([C@H](C)N)NC(=O)CSC[C@@H](C(=O)N[C@@H](CCN)C(=O)NCCCCCCCCCCCCC(=O)O)NC(=O)[C@H](Cc2c[nH]cn2)NC(=O)[C@H](C(C)(C)O)NC(=O)[C@H](CC2CCCCC2)NC(=O)[C@H](CCN)NC1=O` [Example 1197] ({CH2CO}-[Abu(3S-NH2)]Y(Carboxymethyl)D[Phe(3-CF3)][Phe(4-COOH)][Bip][Cit][NMeA][dL][Dab][Cha][Val(3-OH)]HC[Dab]-{NH(CH2)12COOH}; thioether N-14) and `CC(C)C[C@H]1NC(=O)[C@H](C)N(C)C(=O)[C@H](CCC(N)=O)NC(=O)[C@H](Cc2ccc(-c3ccccc3)cc2)NC(=O)[C@H](Cc2ccc(C(=O)O)cc2)NC(=O)[C@H](Cc2cccc(C(F)(F)F)c2)NC(=O)[C@H](CC(=O)O)NC(=O)[C@H](Cc2ccc(OCC(=O)O)cc2)NC(=O)[C@H]([C@H](C)N)NC(=O)CSC[C@@H](C(=O)N[C@@H](CCN)C(=O)NCCOCCOCC(=O)N[C@@H](CCC(=O)NCCOCCOCC(=O)NCCCCCCCCCCCCC(=O)O)C(=O)O)NC(=O)[C@H](Cc2c[nH]cn2)NC(=O)[C@H](C(C)(C)O)NC(=O)[C@H](CC2CCCCC2)NC(=O)[C@H](CCN)NC1=O` [Example 1203] ({CH2CO}-[Abu(3S-NH2)]Y(Carboxymethyl)D[Phe(3-CF3)][Phe(4-COOH)][Bip]Q[NMeA][dL][Dab][Cha][Val(3-OH)]HC[Dab][AEEA][γGlu][AEEA]-{NH(CH2)12COOH}; thioether N-14) are within 1.5-fold of each other in IC50: 18.9 nM for the first, 21.5 nM for the second.

`CC(C)C[C@H]1NC(=O)[C@H](C)N(C)C(=O)[C@H](Cc2ccc(C(=O)O)cc2)NC(=O)[C@H](Cc2ccc(-c3ccccc3)cc2)NC(=O)[C@H](Cc2ccc(C(=O)O)cc2)NC(=O)[C@H](Cc2cccc(C(F)(F)F)c2)NC(=O)[C@H](CC(=O)O)NC(=O)[C@H](Cc2ccc(OCC(=O)O)cc2)NC(=O)[C@H](CN2CCOCC2)NC(=O)CSC[C@@H](C(=O)N[C@@H](CCN)C(=O)NCCCCCCCCCCCCC(=O)O)NC(=O)[C@H](CCC(=O)O)NC(=O)[C@H](C(C)C)NC(=O)[C@H](CC2CCCCC2)NC(=O)[C@H](CCN)NC1=O` [Example 1198] ({CH2CO}-[Ala(morpholin-4-yl)]Y(Carboxymethyl)D[Phe(3-CF3)][Phe(4-COOH)][Bip][Phe(4-COOH)][NMeA][dL][Dab][Cha]VEC[Dab]-{NH(CH2)12COOH}; thioether N-14) and `CC(C)C[C@H]1NC(=O)[C@H](C)N(C)C(=O)[C@H](CCC(N)=O)NC(=O)[C@H](Cc2ccc(-c3ccccc3)cc2)NC(=O)[C@H](Cc2ccc(C(=O)O)cc2)NC(=O)[C@H](Cc2cccc(C(F)(F)F)c2)NC(=O)[C@H](CC(=O)O)NC(=O)[C@H](Cc2ccc(OCC(=O)O)cc2)NC(=O)[C@H]([C@H](C)N)NC(=O)CSC[C@@H](C(=O)N[C@@H](CCN)C(=O)NCCOCCOCC(=O)N[C@@H](CCC(=O)NCCOCCOCC(=O)NCCCCCCCCCCCCC(=O)O)C(=O)O)NC(=O)[C@H](CCC(=O)O)NC(=O)[C@H](C(C)C)NC(=O)[C@H](CC2CCCCC2)NC(=O)[C@H](CCN)NC1=O` [Example 1200] ({CH2CO}-[Abu(3S-NH2)]Y(Carboxymethyl)D[Phe(3-CF3)][Phe(4-COOH)][Bip]Q[NMeA][dL][Dab][Cha]VEC[Dab][AEEA][γGlu][AEEA]-{NH(CH2)12COOH}; thioether N-14) are within 1.5-fold of each other in IC50: 19.6 nM for the first, 28.1 nM for the second.

First: CC(=O)NCCCC[C@@H]1NC(=O)[C@H](C(C)(C)O)NC(=O)[C@H](CC2CCCCC2)NC(=O)[C@H](CCN)NC(=O)[C@@H](CC(C)C)NC(=O)[C@H](C)N(C)C(=O)[C@H](CCC(N)=O)NC(=O)[C@H](Cc2ccc(-c3ccccc3)cc2)NC(=O)[C@H](Cc2ccc(C(=O)O)cc2)NC(=O)[C@H](Cc2cccc(C(F)(F)F)c2)NC(=O)[C@H](CC(=O)O)NC(=O)[C@H](Cc2ccc(OCC(=O)O)cc2)NC(=O)[C@H]([C@H](C)N)NC(=O)CSC[C@@H](C(=O)N[C@@H](CCN)C(=O)NCCOCCOCC(=O)N[C@@H](CCC(=O)NCCOCCOCC(=O)NCCCCCCCCCCCCC(=O)O)C(=O)O)NC1=O [Example 1202] ({CH2CO}-[Abu(3S-NH2)]Y(Carboxymethyl)D[Phe(3-CF3)][Phe(4-COOH)][Bip]Q[NMeA][dL][Dab][Cha][Val(3-OH)]K(Ac)C[Dab][AEEA][γGlu][AEEA]-{NH(CH2)12COOH}; thioether N-14)
Second: CC(=O)NCCCC[C@@H]1NC(=O)[C@H](C(C)(C)O)NC(=O)[C@H](CC2CCCCC2)NC(=O)[C@H](CCN)NC(=O)[C@@H](CC(C)C)NC(=O)[C@H](C)N(C)C(=O)[C@H](CCCNC(N)=O)NC(=O)[C@H](Cc2ccc(-c3ccccc3)cc2)NC(=O)[C@H](Cc2ccc(C(=O)O)cc2)NC(=O)[C@H](Cc2cccc(C(F)(F)F)c2)NC(=O)[C@H](CC(=O)O)NC(=O)[C@H](Cc2ccc(OCC(=O)O)cc2)NC(=O)[C@H]([C@H](C)N)NC(=O)CSC[C@@H](C(=O)N[C@@H](CCN)C(=O)NCCOCCOCC(=O)N[C@@H](CCC(=O)NCCOCCOCC(=O)NCCCCCCCCCCCCC(=O)O)C(=O)O)NC1=O [Example 1206] ({CH2CO}-[Abu(3S-NH2)]Y(Carboxymethyl)D[Phe(3-CF3)][Phe(4-COOH)][Bip][Cit][NMeA][dL][Dab][Cha][Val(3-OH)]K(Ac)C[Dab][AEEA][γGlu][AEEA]-{NH(CH2)12COOH}; thioether N-14)
The IC50 of the first is 2.3-fold higher: 16 nM for the first, 6.9 nM for the second.

Going from `CC(C)C[C@H]1NC(=O)[C@H](C)N(C)C(=O)[C@H](CCCNC(N)=O)NC(=O)[C@H](Cc2ccc(-c3ccccc3)cc2)NC(=O)[C@H](Cc2ccc(C(=O)O)cc2)NC(=O)[C@H](Cc2cccc(C(F)(F)F)c2)NC(=O)[C@H](CC(=O)O)NC(=O)[C@H](Cc2ccc(OCC(=O)O)cc2)NC(=O)[C@H]([C@H](C)N)NC(=O)CSC[C@@H](C(=O)N[C@@H](CCN)C(=O)NCCOCCOCC(=O)N[C@@H](CCC(=O)NCCOCCOCC(=O)NCCCCCCCCCCCCC(=O)O)C(=O)O)NC(=O)[C@H](CO)NC(=O)[C@H](C(C)(C)O)NC(=O)[C@H](CC2CCCCC2)NC(=O)[C@H](CCN)NC1=O` [Example 1205] ({CH2CO}-[Abu(3S-NH2)]Y(Carboxymethyl)D[Phe(3-CF3)][Phe(4-COOH)][Bip][Cit][NMeA][dL][Dab][Cha][Val(3-OH)]SC[Dab][AEEA][γGlu][AEEA]-{NH(CH2)12COOH}; thioether N-14) to `CC(C)C[C@@H]1NC(=O)[C@H](Cc2c[nH]c3ccccc23)NC(=O)[C@H](CC(=O)O)NC(=O)[C@H](Cc2ccncc2)NC(=O)[C@H](Cc2ccc(OCC(=O)O)cc2)NC(=O)CSC[C@@H](C(=O)N[C@@H](CCN)C(=O)NCCCCCCCCCCC(=O)O)NC(=O)[C@H](CCCN)NC(=O)[C@H](C(C)C)NC(=O)[C@H](CC2CCCCC2)NC(=O)[C@H](CCN)NC(=O)[C@@H](CC(C)C)NC(=O)[C@H](C)N(C)C(=O)[C@H](C(C)C)NC(=O)[C@H](Cc2ccc(-c3ccccc3)cc2)NC1=O` [Example 1210] ({CH2CO}-Y(Carboxymethyl)[4Pal]DWL[Bip]V[NMeA][dL][Dab][Cha]V[Orn]C[Dab][Aun]-OH; thioether N-14), the IC50 falls from 24.7 nM to 9.4 nM (2.6-fold). The second is the more potent here.

`CC(C)C[C@@H]1NC(=O)[C@H](Cc2c[nH]c3ccccc23)NC(=O)[C@H](CC(=O)O)NC(=O)[C@H](Cc2ccncc2)NC(=O)[C@H](Cc2ccc(OCC(=O)O)cc2)NC(=O)CSC[C@@H](C(=O)Nc2ccc(C(=O)NCCCCCCCCCCC(=O)O)cc2)NC(=O)[C@H](CN)NC(=O)[C@H](C(C)C)NC(=O)[C@H](CC2CCCCC2)NC(=O)[C@H](CCN)NC(=O)[C@@H](CC(C)C)NC(=O)[C@H](C)N(C)C(=O)[C@H](C(C)C)NC(=O)[C@H](Cc2ccc(-c3ccccc3)cc2)NC1=O` [Example 1211] ({CH2CO}-Y(Carboxymethyl)[4Pal]DWL[Bip]V[NMeA][dL][Dab][Cha]V[Dap]C[4Abz][Aun]-OH; thioether N-14) and `CC(C)C[C@@H]1NC(=O)[C@H](Cc2c[nH]c3ccccc23)NC(=O)[C@H](CC(=O)O)NC(=O)[C@H](Cc2ccncc2)NC(=O)[C@H](Cc2ccc(OCC(=O)O)cc2)NC(=O)CSC[C@@H](C(=O)Nc2ccc(C(=O)NCCCCCCCCCCC(=O)O)cc2)NC(=O)[C@H](CCN)NC(=O)[C@H](C(C)C)NC(=O)[C@H](CC2CCCCC2)NC(=O)[C@H](CCN)NC(=O)[C@@H](CC(C)C)NC(=O)[C@H](C)N(C)C(=O)[C@H](C(C)C)NC(=O)[C@H](Cc2ccc(-c3ccccc3)cc2)NC1=O` [Example 1212] ({CH2CO}-Y(Carboxymethyl)[4Pal]DWL[Bip]V[NMeA][dL][Dab][Cha]V[Dab]C[4Abz][Aun]-OH; thioether N-14) are within 1.5-fold of each other in IC50: 368 nM for the first, 301 nM for the second.
